From ChEMBL document CHEMBL1144508, “Inhibitory activity of stilbenes on Alzheimer's beta-amyloid fibrils in vitro” (Bioorg Med Chem, 2007)
Calls of active or inactive are those of the source. The calls are words filed in the database; no cut-off is given here.

Columns and labels:
[1] = (§1) Antiamyloidogenic activity assessed as inhibition of beta amyloid (25-35) fibril formation after 6 hrs; parameters: species or system Homo sapiens
[2] = species on record: Homo sapiens; experiment: as §1

EC50 [1] | Activity [2] | SMILES
5.6 µM | – | Oc1ccc(/C=C/c2cc(O)cc(O)c2)cc1 [RESVERATROL]
10 µM | – | COc1cc(/C=C/C(=O)CC(=O)/C=C/c2ccc(O)c(OC)c2)ccc1O [CURCUMIN]
– | inactive | O=c1oc2c(O)c(O)cc3c(=O)oc4c(O)c(O)cc1c4c23
4.7 µM | – | OC[C@H]1O[C@@H](Oc2cc(O)cc(/C=C/c3ccc(O)cc3)c2)[C@H](O)[C@@H](O)[C@@H]1O [PICEID]
